# Species on record: Rattus norvegicus
# Test: DrugMatrix - Regimen: Daily Repeat
# Assay type: toxicity, organism-based, Sprague-Dawley
# Design: regimen Daily Repeat, gender Male, age 6-8 weeks
# Conditions: in vivo, sc, route mini-PUMP - SUBCUTANEOUS, vehicle 100 % SALINE
# [1] = 2 mg/kg, 72 h, tissue Blood, dose level High, time 3 day
# [2] = 2 mg/kg, 72 h, tissue Plasma, dose level High, time 3 day
# [3] = 2 mg/kg, 120 h, tissue Blood, dose level High, time 5 day
# [4] = 2 mg/kg, 120 h, tissue Plasma, dose level High, time 5 day
# [5] = 2 mg/kg, […], tissue Blood, dose level High, time 14 day
# [6] = 2 mg/kg, […], tissue Plasma, dose level High, time 14 day
compound,measurement,setting,value
CC(C)NCC(O)c1ccc(O)c(O)c1 (centres undefined) [ISOPROTERENOL],NUCLEATED RED BLOOD CELLS,"0 mg/kg, […], tissue Blood, dose level Control, time 14 day",0.17 /100WBC
same,CREATINE PHOSPHOKINASE,"0 mg/kg, […], tissue Plasma, dose level Control, time 14 day",262 u/L
same,ABSOLUTE BASOPHIL,[1],95 cells/µL
same,ABSOLUTE EOSINOPHIL,[1],95 cells/µL
same,ABSOLUTE LYMPHOCYTE,[1],13000 cells/µL
same,ABSOLUTE MONOCYTE,[1],420 cells/µL
same,BASOPHIL,[1],0.5%
same,EOSINOPHIL,[1],0.55%
same,ERYTHROCYTE COUNT,[1],6.36 x10E6/uL
same,HEMATOCRIT,[1],43.4%
same,HEMOGLOBIN,[1],13 G/DL
same,LEUKOCYTE COUNT,[1],17.82 x10E3/uL
same,LYMPHOCYTE,[1],73.55%
same,MEAN CORPUSCULAR HEMOGLOBIN,[1],20.5 pg
same,MEAN CORPUSCULAR HEMOGLOBIN CONCENTRATION,[1],30.05 G/DL
same,MEAN CORPUSCULAR VOLUME,[1],68.3 fL
same,MONOCYTE,[1],2.35%
same,NEUTROPHIL,[1],22.05%
same,PLATELET COUNT,[1],1170.5 x10E3/uL
same,ALANINE AMINOTRANSFERASE,[2],32 u/L
same,ALBUMIN,[2],3.9 G/DL
same,ALKALINE PHOSPHATASE,[2],349 u/L
same,ASPARTATE AMINOTRANSFERASE,[2],75.5 u/L
same,BLOOD UREA NITROGEN,[2],17 mg/dL
same,CARBON DIOXIDE,[2],40.5 mmol/L
same,CHLORIDE,[2],107 MEQ/L
same,CHOLESTEROL,[2],87.5 mg/dL
same,CREATINE PHOSPHOKINASE,[2],449.5 u/L
same,CREATININE,[2],0.55 mg/dL
same,GLUCOSE,[2],141 mg/dL
same,LIPASE,[2],47.5 u/L
same,PHOSPHORUS,[2],9.6 mg/dL
same,POTASSIUM,[2],6.05 MEQ/L
same,SODIUM,[2],150.5 MEQ/L
same,TOTAL BILIRUBIN,[2],0.3 mg/dL
same,TOTAL PROTEIN,[2],6.25 G/DL
same,URIC ACID,[2],0.8 mg/dL
same,ABSOLUTE BASOPHIL,[3],50 cells/µL
same,ABSOLUTE EOSINOPHIL,[3],110 cells/µL
same,ABSOLUTE LYMPHOCYTE,[3],10400 cells/µL
same,ABSOLUTE MONOCYTE,[3],350 cells/µL
same,BASOPHIL,[3],0.37%
same,EOSINOPHIL,[3],0.83%
same,ERYTHROCYTE COUNT,[3],6.25 x10E6/uL
same,HEMATOCRIT,[3],42.73%
same,HEMOGLOBIN,[3],12.9 G/DL
same,LEUKOCYTE COUNT,[3],14.26 x10E3/uL
same,LYMPHOCYTE,[3],72.93%
same,MEAN CORPUSCULAR HEMOGLOBIN,[3],20.63 pg
same,MEAN CORPUSCULAR HEMOGLOBIN CONCENTRATION,[3],30.17 G/DL
same,MEAN CORPUSCULAR VOLUME,[3],68.4 fL
same,MONOCYTE,[3],2.5%
same,NEUTROPHIL,[3],22.8%
same,PLATELET COUNT,[3],1375.33 x10E3/uL
same,ALANINE AMINOTRANSFERASE,[4],41.67 u/L
same,ALBUMIN,[4],3.77 G/DL
same,ALKALINE PHOSPHATASE,[4],331.33 u/L
same,ASPARTATE AMINOTRANSFERASE,[4],78 u/L
same,BLOOD UREA NITROGEN,[4],15.33 mg/dL
same,CARBON DIOXIDE,[4],39.67 mmol/L
same,CHLORIDE,[4],108 MEQ/L
same,CHOLESTEROL,[4],85.67 mg/dL
same,CREATINE PHOSPHOKINASE,[4],183 u/L
same,CREATININE,[4],0.57 mg/dL
same,GLUCOSE,[4],168.33 mg/dL
same,LIPASE,[4],99 u/L
same,PHOSPHORUS,[4],10.23 mg/dL
same,POTASSIUM,[4],5.97 MEQ/L
same,SODIUM,[4],150 MEQ/L
same,TOTAL BILIRUBIN,[4],0.33 mg/dL
same,TOTAL PROTEIN,[4],6.03 G/DL
same,URIC ACID,[4],1 mg/dL
same,ABSOLUTE BASOPHIL,[5],60 cells/µL
same,ABSOLUTE EOSINOPHIL,[5],110 cells/µL
same,ABSOLUTE LYMPHOCYTE,[5],11600 cells/µL
same,ABSOLUTE MONOCYTE,[5],300 cells/µL
same,BASOPHIL,[5],0.42%
same,EOSINOPHIL,[5],0.72%
same,ERYTHROCYTE COUNT,[5],6.69 x10E6/uL
same,HEMATOCRIT,[5],44.4%
same,HEMOGLOBIN,[5],14.28 G/DL
same,LEUKOCYTE COUNT,[5],14.87 x10E3/uL
same,LYMPHOCYTE,[5],78.08%
same,MEAN CORPUSCULAR HEMOGLOBIN,[5],21.3 pg
same,MEAN CORPUSCULAR HEMOGLOBIN CONCENTRATION,[5],32.12 G/DL
same,MEAN CORPUSCULAR VOLUME,[5],66.4 fL
same,MONOCYTE,[5],1.94%
same,NEUTROPHIL,[5],18.22%
same,PLATELET COUNT,[5],1074.6 x10E3/uL
same,ALANINE AMINOTRANSFERASE,[6],40.6 u/L
same,ALBUMIN,[6],4 G/DL
same,ALKALINE PHOSPHATASE,[6],424.4 u/L
same,ASPARTATE AMINOTRANSFERASE,[6],98.2 u/L
same,BLOOD UREA NITROGEN,[6],19.2 mg/dL
same,CARBON DIOXIDE,[6],38.8 mmol/L
same,CHLORIDE,[6],105.8 MEQ/L
same,CHOLESTEROL,[6],73.4 mg/dL
same,CREATINE PHOSPHOKINASE,[6],274.2 u/L
same,CREATININE,[6],0.8 mg/dL
same,GLUCOSE,[6],132 mg/dL
same,LACTATE DEHYDROGENASE,[6],214.4 u/L
same,LIPASE,[6],11.8 u/L
same,PHOSPHORUS,[6],9.98 mg/dL
same,POTASSIUM,[6],6.02 MEQ/L
same,SODIUM,[6],149.2 MEQ/L
same,TOTAL BILIRUBIN,[6],0.36 mg/dL
same,TOTAL PROTEIN,[6],6.46 G/DL
same,URIC ACID,[6],0.62 mg/dL
same,ABSOLUTE BASOPHIL,"[…], 72 h, tissue Blood, dose 4.2 mg/Kg, dose level M1, time 3 day",0 CELLS/uL

# From ChEMBL document CHEMBL3885881, “DrugMatrix”
